# Source: the supplement of paper PMC10307832
# Legend:
# Experiment in all cases: relative viability (nuclei count vs DMSO), 5 days (fraction); higher = more cells survive
# A-427 = system: A-427
# Summary of the method: (§1)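 Five library-drug doses in √10 steps were combined with a fixed anchor-drug dose, or a single drug was given alone, by pin tool to lung cancer cell lines in 1536-well plates the day after seeding. Nuclei were stained and counted after 5 days. Relative viability is the nuclei count in treated wells over that in vehicle wells, taken as the median of duplicate plates.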
# CAL-12T = system: CAL-12T
# Summary of the method: as §1
# COR-L 105 = system: COR-L 105
# Summary of the method: as §1
# EMC-BAC-2 = system: EMC-BAC-2
# Summary of the method: as §1
# HARA = system: HARA
# Summary of the method: as §1
# HCC-366 = system: HCC-366
# Summary of the method: as §1
# HCC-827 = system: HCC-827
# Summary of the method: as §1
# HOP-62 = system: HOP-62
# Summary of the method: as §1
# LCLC-103H = system: LCLC-103H
# Summary of the method: as §1
# NCI-H1355 = system: NCI-H1355
# Summary of the method: as §1
# NCI-H1395 = system: NCI-H1395
# Summary of the method: as §1
# NCI-H1437 = system: NCI-H1437
# Summary of the method: as §1
# NCI-H1755 = system: NCI-H1755
# Summary of the method: as §1
# NCI-H1792 = system: NCI-H1792
# Summary of the method: as §1
# NCI-H1915 = system: NCI-H1915
# Summary of the method: as §1
# NCI-H1975 = system: NCI-H1975
# Summary of the method: as §1
# NCI-H2009 = system: NCI-H2009
# Summary of the method: as §1
# NCI-H2228 = system: NCI-H2228
# Summary of the method: as §1
# NCI-H23 = system: NCI-H23
# Summary of the method: as §1
# NCI-H460 = system: NCI-H460
# Summary of the method: as §1
# NCI-H727 = system: NCI-H727
# Summary of the method: as §1
# SK-LU-1 = system: SK-LU-1
# Summary of the method: as §1
# SW 1573 = system: SW 1573
# Summary of the method: as §1
smiles,measurement,setting,value
C[C@@H]1CN(CC(=O)Nc2ccc3c(c2)Cc2cccc(-c4cc(=O)cc(N5CCOCC5)o4)c2S3)C[C@H](C)O1 + CS(=O)(=O)N1CCN(Cc2cc3nc(-c4cccc5[nH]ncc45)nc(N4CCOCC4)c3s2)CC1 [Pictilisib] (partner 1 µM),relative viability,A-427; first compound 0.04 µM,0.581
same,relative viability,A-427; first compound 0.1265 µM,0.674
same,relative viability,A-427; first compound 0.4 µM,0.679
same,relative viability,A-427; first compound 4 µM,0.675
same,relative viability,CAL-12T; first compound 0.04 µM,0.396
same,relative viability,CAL-12T; first compound 0.1265 µM,0.487
same,relative viability,CAL-12T; first compound 0.4 µM,0.396
same,relative viability,CAL-12T; first compound 4 µM,0.378
same,relative viability,COR-L 105; first compound 0.04 µM,0.344
same,relative viability,COR-L 105; first compound 0.1265 µM,0.402
same,relative viability,COR-L 105; first compound 0.4 µM,0.375
same,relative viability,COR-L 105; first compound 4 µM,0.414
same,relative viability,EMC-BAC-2; first compound 0.04 µM,0.559
same,relative viability,EMC-BAC-2; first compound 0.1265 µM,0.528
same,relative viability,EMC-BAC-2; first compound 0.4 µM,0.429
same,relative viability,EMC-BAC-2; first compound 4 µM,0.514
same,relative viability,HARA; first compound 0.04 µM,0.383
same,relative viability,HARA; first compound 0.1265 µM,0.37
same,relative viability,HARA; first compound 0.4 µM,0.226
same,relative viability,HARA; first compound 4 µM,0.372
same,relative viability,HCC-366; first compound 0.04 µM,0.151
same,relative viability,HCC-366; first compound 0.1265 µM,0.142
same,relative viability,HCC-366; first compound 0.4 µM,0.138
same,relative viability,HCC-366; first compound 4 µM,0.112
same,relative viability,HCC-827; first compound 0.04 µM,0.987
same,relative viability,HCC-827; first compound 0.1265 µM,1.03
same,relative viability,HCC-827; first compound 0.4 µM,1.22
same,relative viability,HCC-827; first compound 4 µM,0.995
same,relative viability,HOP-62; first compound 0.04 µM,0.359
same,relative viability,HOP-62; first compound 0.1265 µM,0.626
same,relative viability,HOP-62; first compound 0.4 µM,0.753
same,relative viability,HOP-62; first compound 4 µM,0.605
same,relative viability,LCLC-103H; first compound 0.04 µM,0.547
same,relative viability,LCLC-103H; first compound 0.1265 µM,0.557
same,relative viability,LCLC-103H; first compound 0.4 µM,0.582
same,relative viability,LCLC-103H; first compound 4 µM,0.668
same,relative viability,NCI-H1355; first compound 0.04 µM,0.229
same,relative viability,NCI-H1355; first compound 0.1265 µM,0.43
same,relative viability,NCI-H1355; first compound 0.4 µM,0.418
same,relative viability,NCI-H1355; first compound 4 µM,0.331
same,relative viability,NCI-H1395; first compound 0.04 µM,0.66
same,relative viability,NCI-H1395; first compound 0.1265 µM,0.556
same,relative viability,NCI-H1395; first compound 0.4 µM,0.502
same,relative viability,NCI-H1395; first compound 4 µM,0.559
same,relative viability,NCI-H1437; first compound 0.04 µM,0.416
same,relative viability,NCI-H1437; first compound 0.1265 µM,0.45
same,relative viability,NCI-H1437; first compound 0.4 µM,0.339
same,relative viability,NCI-H1437; first compound 4 µM,0.477
same,relative viability,NCI-H1755; first compound 0.04 µM,0.381
same,relative viability,NCI-H1755; first compound 0.1265 µM,0.386
same,relative viability,NCI-H1755; first compound 0.4 µM,0.433
same,relative viability,NCI-H1755; first compound 4 µM,0.388
same,relative viability,NCI-H1792; first compound 0.04 µM,0.242
same,relative viability,NCI-H1792; first compound 0.1265 µM,0.264
same,relative viability,NCI-H1792; first compound 0.4 µM,0.274
same,relative viability,NCI-H1792; first compound 4 µM,0.287
same,relative viability,NCI-H1915; first compound 0.04 µM,0.888
same,relative viability,NCI-H1915; first compound 0.1265 µM,0.961
same,relative viability,NCI-H1915; first compound 0.4 µM,0.97
same,relative viability,NCI-H1915; first compound 4 µM,0.774
same,relative viability,NCI-H1975; first compound 0.04 µM,0.32
same,relative viability,NCI-H1975; first compound 0.1265 µM,0.263
same,relative viability,NCI-H1975; first compound 0.4 µM,0.279
same,relative viability,NCI-H1975; first compound 4 µM,0.298
same,relative viability,NCI-H2009; first compound 0.04 µM,0.909
same,relative viability,NCI-H2009; first compound 0.1265 µM,0.84
same,relative viability,NCI-H2009; first compound 0.4 µM,0.816
same,relative viability,NCI-H2009; first compound 4 µM,0.588
same,relative viability,NCI-H2228; first compound 0.04 µM,0.355
same,relative viability,NCI-H2228; first compound 0.1265 µM,0.256
same,relative viability,NCI-H2228; first compound 0.4 µM,0.372
same,relative viability,NCI-H2228; first compound 4 µM,0.472
same,relative viability,NCI-H23; first compound 0.04 µM,0.448
same,relative viability,NCI-H23; first compound 0.1265 µM,0.499
same,relative viability,NCI-H23; first compound 0.4 µM,0.483
same,relative viability,NCI-H23; first compound 4 µM,0.543
same,relative viability,NCI-H460; first compound 0.04 µM,0.258
same,relative viability,NCI-H460; first compound 0.1265 µM,0.404
same,relative viability,NCI-H460; first compound 0.4 µM,0.279
same,relative viability,NCI-H460; first compound 4 µM,0.346
same,relative viability,NCI-H727; first compound 0.04 µM,0.291
same,relative viability,NCI-H727; first compound 0.1265 µM,0.421
same,relative viability,NCI-H727; first compound 0.4 µM,0.252
same,relative viability,NCI-H727; first compound 4 µM,0.385
same,relative viability,SK-LU-1; first compound 0.04 µM,0.657
same,relative viability,SK-LU-1; first compound 0.1265 µM,0.594
same,relative viability,SK-LU-1; first compound 0.4 µM,0.702
same,relative viability,SK-LU-1; first compound 4 µM,0.484
same,relative viability,SW 1573; first compound 0.04 µM,0.536
same,relative viability,SW 1573; first compound 0.1265 µM,0.531
same,relative viability,SW 1573; first compound 0.4 µM,0.489
same,relative viability,SW 1573; first compound 4 µM,0.486
